Results as given in patent US11052157B2 (priority 2014, dated 2021).
Structures can show the parent of a compound that is named as a salt.

Assays:
[1] = system: intact, bacterially derived minicells; assay: Flow cytometry of dye-packaged minicells (FL1 channel); set-up: species or system Salmonella enterica serovar Typhimurium; details: BacLight Green 200 nM, 30 minutes, room temperature
Description: (§1) Minicells packaged with BacLight™ Green were analyzed by flow cytometry (Beckman Coulter FC500). Empty minicells and BacLight™ Green-packaged minicells were labeled with an anti-LPS alexa fluor 647 (AF647) antibody. Firstly, the minicells were analyzed using the FL4 channel to detect anti-LPS AF647-stained minicells. The minicell population was visualized in a dot plot using FL4 fluorescence versus forward scatter, and the population was gated to select anti-LPS AF647 stained minicells only, disregarding any debris.
The gated population was analyzed on the FL1 channel, to detect BacLight™ Green fluorescence.
as §1, with “loaded” for “packaged”, “SYTO 9®” for “BacLight™ Green”, “SYTO® 9-stained” for “BacLight™ Green-packaged”, “plot,” for “plot”, “AF647-stained” for “AF647 stained”, “debris. The gated population then was analyzed on the FL1 channel, to detect SYTO 9 fluorescence.” for “debris.”

[2] = cited from earlier work
[3] = system: MDA-MB-468 human breast cancer cells; assay: Incubation of non-targeted doxorubicin-loaded minicells (small-scale protocol) with cancer cells, confocal microscopy; assay type: cell-based; details: 1×10^8 non-targeted doxorubicin-loaded minicells (small-scale protocol), 10^4 cells per well; within two days
Description: Upon overnight incubation with the drug (about 1 ml/mg) at 37° C. with rotation, the loaded minicells were subjected five times to a washing step that entailed centrifugation (13,200 rpm, 10 minutes) and resuspension of the resultant pellet in 1 ml BSG buffer (pH 7.4).
The washed, doxorubicin-loaded minicells (1×10^8) then were incubated with estrogen receptor-negative MDA-MB-468 human breast cancer cells (10^4 cells per well) in Gibco RPMI-1640 tissue culture medium (in 0.5 ml per well) supplemented with 10% Fetal Bovine Serum, 2 mM L-glutamine, and 100 U/ml of both penicillin G and streptomycin.
The cells were monitored subsequently every 24 hours via confocal microscopy.

[4] = Fluorescence readings of doxorubicin loading solutions with folic acid (plate reader); assay type: physicochemical; details: for % Fluorescence Em λ590 nm / % Fluorescence Em λ620 nm: excitation 485 nm
Description: The solutions were incubated at room temperature overnight and then were filtered through a 0.1 μm filter, to sterilize the solutions and to remove any particulates.
On the following day the fluorescence of an aliquot of each solution was measured with a fluorescence plate reader (excitation wavelength: 485 nm, emission wavelengths: 590 nm and 620 nm). Concomitantly, minicells were washed with PBS buffer and then were loaded with one or another of each of the Dox+FA solutions, previously prepared at a density of 2.5×10^10 minicells/ml, in a volume between about 1 ml to 2 mls. Samples (500 μl) were taken from each of the treatment groups at the time points of 30 minutes, 1 hour, 2 hours, 4 hours, 6 hours, and overnight.

CN1C(=CC=Cc2n(Cc3ccc(CCl)cc3)c3cc(Cl)c(Cl)cc3[n+]2Cc2ccc(CCl)cc2)Oc2ccccc21.[Cl-] [BacLight™ Green]
minicells that are fluorescent [1]: greater than 95%

O=C1c2c(O)ccc(O)c2C(=O)c2c(NCCNCCO)ccc(NCCNCCO)c21 [MTX, mitoxantrone dihydrochloride]
solubility in water [2]: 5000 to 7500 µg/mL

doxorubicin
doxorubicin entry into cancer cells (confocal microscopy) [3]: red fluorescence in their nuclei | % Fluorescence Em λ590 nm ([4]; 0 μg/ml FA, Dox 100 pg/ml in PBS): 100% | % Fluorescence Em λ620 nm ([4]; 0 μg/ml FA): 100% | % Fluorescence Em λ590 nm ([4]; 50 μg/ml FA): 93% | % Fluorescence Em λ620 nm ([4]; 50 μg/ml FA): 94% | doxorubicin emission fluorescence lost ([4]; 50 μg/ml folic acid): 6-7% | % Fluorescence Em λ590 nm ([4]; 400 μg/ml FA): 61% | % Fluorescence Em λ620 nm ([4]; 400 μg/ml FA): 59% | doxorubicin fluorescence emission signal lost ([4]; 400 μg/ml of folic acid): ~40%
